Data as given in US7501415B2, “Selective inhibitors of ERK protein kinase and uses thereof” (Vertex Pharmaceuticals Incorporated, priority 2004, dated 2009).

What follows are molecules tested against activated ERK2 (Homo sapiens, UniProt P28482) (assay: ERK2 inhibition assay, spectrophotometric coupled-enzyme assay). Details: activated ERK2 10 nM, 65 μM ATP, 200 μM erktide peptide, 30° C., pH 7.5.
Format: biochemical
Procedure: In this assay, a fixed concentration of activated ERK2 (10 nM) was incubated with various concentrations of a compound of the present invention in DMSO (2.5%) for 10 min. at 30° C. in 0.1 M HEPES buffer (pH 7.5), containing 10 mM MgCl2, 2.5 mM phosphoenolpyruvate, 200 μM NADH, 150 μg/ml pyruvate kinase, 50 μg/ml lactate dehydrogenase, and 200 μM erktide peptide.

Sequence of activated ERK2 (P28482 whole entry): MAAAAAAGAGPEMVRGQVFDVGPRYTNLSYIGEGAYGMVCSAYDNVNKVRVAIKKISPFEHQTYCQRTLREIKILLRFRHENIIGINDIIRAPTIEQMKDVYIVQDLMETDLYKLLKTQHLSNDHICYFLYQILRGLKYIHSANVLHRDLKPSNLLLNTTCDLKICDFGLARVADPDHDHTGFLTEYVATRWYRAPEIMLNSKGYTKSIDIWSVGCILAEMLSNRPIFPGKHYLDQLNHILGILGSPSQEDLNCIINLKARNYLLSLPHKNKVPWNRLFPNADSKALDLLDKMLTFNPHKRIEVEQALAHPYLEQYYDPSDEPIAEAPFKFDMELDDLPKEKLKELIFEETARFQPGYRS

Structure (SMILES) | Ki
Cc1cnc(Nc2ccc(Cl)cc2Cl)nc1-c1c[nH]c(C(=O)NC(CO)c2ccccc2)c1 (centres unmarked) [Compound I-3] | < 100 nM
Cc1cnc(Nc2ccc([N+](=O)[O-])cc2Cl)nc1-c1c[nH]c(C(=O)NC(CO)c2ccccc2)c1 (centres unmarked) [Compound I-4] | < 100 nM
Cc1cnc(Nc2cccc(Cl)c2Cl)nc1-c1c[nH]c(C(=O)NC(CO)c2ccccc2)c1 (centres unmarked) [Compound I-6] | < 100 nM
Cc1cnc(Nc2c(Cl)cccc2Cl)nc1-c1c[nH]c(C(=O)NC(CO)c2ccccc2)c1 (centres unmarked) [Compound I-8] | > 100 nM
Cc1cnc(Nc2c(C)cccc2Cl)nc1-c1c[nH]c(C(=O)NC(CO)c2ccccc2)c1 (centres unmarked) [Compound I-9] | > 100 nM
Cc1cccc(C(CO)NC(=O)c2cc(-c3nc(Nc4ccccc4Cl)ncc3C)c[nH]2)c1 (centres unmarked) [Compound I-10] | < 100 nM
Cc1cnc(Nc2ccccc2Cl)nc1-c1c[nH]c(C(=O)NC(CO)c2cccc(C(F)(F)F)c2)c1 (centres unmarked) [Compound I-11] | < 100 nM
Cc1cnc(Nc2c(F)cccc2Cl)nc1-c1c[nH]c(C(=O)NC(CO)c2ccccc2)c1 (centres unmarked) [Compound I-12] | < 100 nM
